Earlier results in patent US20040115233A1, “Composition for improving skin environment and clothes thereof” (priority 2001, published 2004).

Tests used:
microorganisms = settings: among components of tea tree oil
[1] = system: patients with atopic diseases

SMILES	antibacterial action (microorganisms)	alleviating itching ([1]; patients with mild to medium atopic diseases (127 children and 240 adults))	serious cases in which the disease was improved ([1]; serious cases)
Cc1ccc(C(C)C)cc1 [paracimene]	some antibacterial actions		
CC1=CC=C(C(C)C)CC1 [α-terpinene]	some antibacterial actions		
CC1=CCC(C(C)(C)O)CC1 (stereo not drawn) [α-terpineol]	some antibacterial actions		
CCCCCC=CCC=CCC=CCCCCC(=O)O [γ-linolenic acid, 6,9,12-octadecatrienic acid]		effective for alleviating itching	116 of 179
CC1=CCC(C(C)C)=CC1 [γ-terpinene]	some antibacterial actions		
